# Paper PMC10141580, “Cyclic Dichalcogenides Extend the Reach of Bioreductive Prodrugs to Harness Thiol/Disulfide Oxidoreductases: Applications to seco-Duocarmycins Targeting the Thioredoxin System” (ACS Central Science, 2023)
# Read-outs that look alike come from different tables or passages of the source.
# Columns and labels:
# [1] = tested on: HeLa-HRE cells; experiment: Resazurin cytotoxicity assay, HeLa-HRE, 48 h; details: for IC50(HeLa)/IC50(A549): ratio HeLa vs A549
# Method: (§1) We used A549 lung cancer and HeLa cervical cancer cell lines for initial screening of the prodrugs.
# HeLa-HRE cells were treated with prodrugs of the
# Dose -response curves were calculated from at least 27 incremental single concentrations over a
# range of at least three log units.
# [2] = tested on: A549 cells; experiment: Resazurin cytotoxicity assay, A549, 72 h; details: read-out: IC50(nM): A549
# Method: as §1
# Fi gure S9: Cell ular resazurin-based cytotoxi ci ty as s a y.
# Dose -response curves were calculated from at least 27 incremental single concentrations over a range
# of at least three log units. Individual experiments with annotated experiment numbers are shown for each prodrug
# [3] = tested on: mouse; experiment: Tolerability for repeated dose administration in vivo (summary); details: weekly or twice-weekly administration
# [4] = tested on: NCI-60 standardized human tumor cell line panel; experiment: cells; type: cell-based; details: read-out: GI50
# [5] = read-out: IC50(nM): HeLa, HeLa, 48 h
smiles,measurement,setting,value
O=C(c1cc2cc(OCCCN3CCC3)ccc2[nH]1)N1CC(CCl)c2c1cc(OC(=O)N1CCCC3COCC31)c1ccccc21 (mixture of isomers) [O56-CBI-AZI],IC50,"[1]; initial screening, A549 and HeLa cell lines",~300 nM
same,IC50(HeLa)/IC50(A549),[1],1.1
same,IC50,[1]; [5],460 nM
same,IC50,[2],410 nM
same,well-tolerated dose,[3],1 mg/kg
COC(=O)Oc1cc2c(c3ccccc13)[C@H](CCl)CN2C(=O)c1cc2cc(OCCCN3CCC3)ccc2[nH]1 [MC-CBI-AZI],IC50(HeLa)/IC50(A549),[1],0.5
same,IC50,[1]; [5],0.8 nM
same,IC50,[2],1.6 nM
COC(=O)Oc1cc2c(c3ccccc13)[C@H](CCl)CN2C(=O)c1cc2cc(OC)c(OC)c(OC)c2[nH]1 [MC-CBI-TMI],IC50(HeLa)/IC50(A549),[1],1.5
same,IC50,[1]; [5],4.3 nM
same,IC50,[2],2.9 nM
CN(CCSSCCN1CCOCC1)C(=O)Oc1cc2c(c3ccccc13)[C@H](CCl)CN2C(=O)c1cc2cc(OCCCN3CCC3)ccc2[nH]1 [SS00M-CBI-AZI],IC50(HeLa)/IC50(A549),[1],1.7
same,IC50,[1]; [5],6.9 nM
same,IC50,[2],4.1 nM
same,GI50,"[4]; 786-0, AZI sheet",32 nM
same,GI50,"[4]; A498, AZI sheet",9.1 nM
same,GI50,"[4]; A549/ATCC, AZI sheet",4.5 nM
same,GI50,"[4]; ACHN, AZI sheet",28 nM
same,GI50,"[4]; BT-549, AZI sheet",84 nM
same,GI50,"[4]; CAKI-1, AZI sheet",37 nM
same,GI50,"[4]; CCRF-CEM, AZI sheet",100 nM
same,GI50,"[4]; COLO 205, AZI sheet",320 nM
same,GI50,"[4]; DU-145, AZI sheet",12 nM
same,GI50,"[4]; EKVX, AZI sheet",42 nM
same,GI50,"[4]; HCC-2998, AZI sheet",27 nM
same,GI50,"[4]; HCT-15, AZI sheet",57 nM
same,GI50,"[4]; HCT-116, AZI sheet",45 nM
same,GI50,"[4]; HL-60(TB), AZI sheet",130 nM
same,GI50,"[4]; HOP-62, AZI sheet",2.5 nM
same,GI50,"[4]; HOP-92, AZI sheet",380 nM
same,GI50,"[4]; HT29, AZI sheet",70 nM
same,GI50,"[4]; IGROV1, AZI sheet",45 nM
same,GI50,"[4]; K-562, AZI sheet",75 nM
same,GI50,"[4]; KM12, AZI sheet",31 nM
same,GI50,"[4]; LOX IMVI, AZI sheet",8.7 nM
same,GI50,"[4]; M14, AZI sheet",10 nM
same,GI50,"[4]; MALME-3M, AZI sheet",48 nM
same,GI50,"[4]; MCF7, AZI sheet",7.5 nM
same,GI50,"[4]; MDA-MB-231, AZI sheet",71.1 nM
same,GI50,"[4]; MDA-MB-435, AZI sheet",37 nM
same,GI50,"[4]; MDA-MB-468, AZI sheet",40 nM
same,GI50,"[4]; MOLT-4, AZI sheet",50 nM
same,GI50,"[4]; NCI-H23, AZI sheet",10 nM
same,GI50,"[4]; NCI-H226, AZI sheet",9.5 nM
same,GI50,"[4]; NCI-H522, AZI sheet",270 nM
same,GI50,"[4]; OVCAR-3, AZI sheet",240 nM
same,GI50,"[4]; OVCAR-4, AZI sheet",620 nM
same,GI50,"[4]; OVCAR-5, AZI sheet",68 nM
same,GI50,"[4]; OVCAR-8, AZI sheet",25 nM
same,GI50,"[4]; PC-3, AZI sheet",39.6 nM
same,GI50,"[4]; RPMI-8226, AZI sheet",470 nM
same,GI50,"[4]; RXF 393, AZI sheet",41 nM
same,GI50,"[4]; SF-268, AZI sheet",24 nM
same,GI50,"[4]; SF-295, AZI sheet",3 nM
same,GI50,"[4]; SF-539, AZI sheet",51 nM
same,GI50,"[4]; SK-MEL-2, AZI sheet",49 nM
same,GI50,"[4]; SK-MEL-5, AZI sheet",6.3 nM
same,GI50,"[4]; SK-MEL-28, AZI sheet",29 nM
same,GI50,"[4]; SK-OV-3, AZI sheet",8.7 nM
same,GI50,"[4]; SN12C, AZI sheet",65 nM
same,GI50,"[4]; SNB-19, AZI sheet",6.6 nM
same,GI50,"[4]; SR, AZI sheet",7.4 nM
same,GI50,"[4]; SW-620, AZI sheet",46 nM
same,GI50,"[4]; T-47D, AZI sheet",290 nM
same,GI50,"[4]; TK-10, AZI sheet",970 nM
same,GI50,"[4]; U251, AZI sheet",3.6 nM
same,GI50,"[4]; UACC-62, AZI sheet",6.2 nM
same,GI50,"[4]; UACC-257, AZI sheet",92 nM
same,GI50,"[4]; UO-31, AZI sheet",44 nM
COc1cc2cc(C(=O)N3C[C@@H](CCl)c4c3cc(OC(=O)N(C)CCSSCCN3CCOCC3)c3ccccc43)[nH]c2c(OC)c1OC [SS00M-CBI-TMI],IC50(HeLa)/IC50(A549),[1],3.6
same,IC50,[1]; [5],125 nM
same,IC50,[2],35 nM
same,GI50,[4]; 786-0,16 nM
same,GI50,[4]; A498,270 nM
same,GI50,[4]; A549/ATCC,31 nM
same,GI50,[4]; ACHN,19 nM
same,GI50,[4]; BT-549,15 nM
same,GI50,[4]; CAKI-1,41 nM
same,GI50,[4]; CCRF-CEM,100 nM
same,GI50,[4]; COLO 205,450 nM
same,GI50,[4]; EKVX,82 nM
same,GI50,[4]; HCC-2998,78 nM
same,GI50,[4]; HCT-15,190 nM
same,GI50,[4]; HCT-116,610 nM
same,GI50,[4]; HL-60(TB),78 nM
same,GI50,[4]; HOP-62,11 nM
same,GI50,[4]; HOP-92,750 nM
same,GI50,[4]; HT29,320 nM
same,GI50,[4]; IGROV1,23 nM
same,GI50,[4]; K-562,330 nM
same,GI50,[4]; KM12,150 nM
same,GI50,[4]; LOX IMVI,42 nM
same,GI50,[4]; M14,31 nM
same,GI50,[4]; MALME-3M,110 nM
same,GI50,[4]; MDA-MB-435,51 nM
same,GI50,[4]; MDA-MB-468,12 nM
same,GI50,[4]; MOLT-4,17 nM
same,GI50,[4]; NCI-H23,9.6 nM
same,GI50,[4]; NCI-H226,29 nM
same,GI50,[4]; NCI-H460,9.5 nM
same,GI50,[4]; NCI-H522,400 nM
same,GI50,[4]; OVCAR-3,690 nM
same,GI50,[4]; OVCAR-4,560 nM
same,GI50,[4]; OVCAR-5,82 nM
same,GI50,[4]; OVCAR-8,43 nM
same,GI50,[4]; PC-3,25 nM
same,GI50,[4]; RPMI-8226,850 nM
same,GI50,[4]; RXF 393,6.6 nM
same,GI50,[4]; SF-268,21 nM
same,GI50,[4]; SF-295,7.4 nM
same,GI50,[4]; SF-539,8.3 nM
same,GI50,[4]; SK-MEL-5,35 nM
same,GI50,[4]; SK-MEL-28,41 nM
same,GI50,[4]; SK-OV-3,16 nM
same,GI50,[4]; SN12C,34 nM
same,GI50,[4]; SNB-19,28 nM
same,GI50,[4]; SR,6.9 nM
same,GI50,[4]; SW-620,570 nM
same,GI50,[4]; T-47D,50 nM
same,GI50,[4]; TK-10,820 nM
same,GI50,[4]; U251,18 nM
same,GI50,[4]; UACC-62,52 nM
same,GI50,[4]; UACC-257,500 nM
